Drawing on patent publication US20230114728A1 (Venatorx Pharmaceuticals, Inc., priority 2019, published 2023), this text covers MIC for 27 compounds.

Molecules are shown by their SMILES. Values after ≈ are worked out from the molar mass of the structure shown.

The assay has as its system N. gonorrhoeae WHO Z. The experiment in a line: Liquid broth MIC in Fastidious broth. As to conditions: Neisseria gonorrhoeae, read-out: Minimum Inhibitory Concentration, N. gonorrhoeae WHO Z. Type of assay: cell-based. In a few lines:
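Broth microdilution in Fastidious broth with 2-fold compound series; inoculum from 24 h chocolate agar colonies, 5×10^5 CFU/mL start. Incubated ~24 hours at 36° C, 5% CO2. MIC read visually as lowest concentration giving <10% growth versus full-growth wells; strains carry mosaic PBP2.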
As to `CCN1CCN(C(=O)NC(C(=O)N[C@H]2Cc3cccc(C(=O)O)c3OB2O)c2cc(O)cc(O)c2)C(=O)C1=O` (mixture of isomers) [Example 79, (3R)-3-(2-(3,5-dihydroxyphenyl)-2-(4-ethyl-2,3-dioxopiperazine-1-carboxamido)acetamido)-2-hydroxy-3,4-dihydro-2H-benzo[e][1,2]oxaborinine-8-carboxylic acid], the MIC was 4 to 8 µg/mL.

As to `CCN1CCN(C(=O)N[C@H](C(=O)N[C@H]2Cc3cccc(C(=O)O)c3OB2O)c2cc(O)cc(O)c2)C(=O)C1=O` (single isomer, unassigned) [Example 81], the MIC fell in the range of 16 to 32 µg/mL (≈ 29.6 to 59.2 µM).

On to `CCN1CCN(C(=O)N[C@@H](C(=O)N[C@H]2Cc3cccc(C(=O)O)c3OB2O)c2cc(O)cc(O)c2)C(=O)C1=O` (single isomer, unassigned) [Example 82], for which the MIC lay within 4 to 8 µg/mL (≈ 7.4 to 14.8 µM).

As for `NCCN1CCN(C(=O)N[C@H](C(=O)N[C@H]2Cc3cccc(C(=O)O)c3OB2O)c2ccc(C(=O)O)cc2)C(=O)C1=O` (single isomer, unassigned) [Example 83], the MIC was above 64 µg/mL.

For the compound `NCCN1CCN(C(=O)N[C@H](C(=O)N[C@H]2Cc3cccc(C(=O)O)c3OB2O)c2ccc(O)cc2F)C(=O)C1=O` (single isomer, unassigned) [Example 88], the MIC is above 64 µg/mL.

Consider `NCCN1CCN(C(=O)N[C@@H](C(=O)N[C@H]2Cc3cccc(C(=O)O)c3OB2O)c2ccc(O)cc2F)C(=O)C1=O` (single isomer, unassigned) [Example 89], for which the MIC was above 64 µg/mL.

Consider `CCN1CCN(C(=O)N[C@@H](C(=O)N[C@H]2Cc3cccc(C(=O)O)c3OB2O)c2cc(Cl)c(O)cc2Cl)C(=O)C1=O` (single isomer, unassigned) [Example 91], for which the MIC is 16 to 32 µg/mL (≈ 27 to 53.9 µM).

In the case of `CCN1CCN(C(=O)N[C@H](C(=O)N[C@H]2Cc3cccc(C(=O)O)c3OB2O)c2cc(Cl)c(O)cc2Cl)C(=O)C1=O` (single isomer, unassigned) [Example 92], the MIC was above 64 µg/mL.

In the case of `CCN1CCN(C(=O)NC(C(=O)N[C@H]2Cc3ccc(F)c(C(=O)O)c3OB2O)c2nc(N)sc2F)C(=O)C1=O` (stereo partly drawn) [Example 18, (3R)-3-(2-(2-amino-5-fluorothiazol-4-yl)-2-(4-ethyl-2,3-dioxopiperazine-1-carboxamido)acetamido)-7-fluoro-2-hydroxy-3,4-dihydro-2H-benzo[e][1,2]oxaborinine-8-carboxylic acid], the MIC lay in the range of 4 to 8 µg/mL (≈ 7.06 to 14.1 µM).

With `CCN1CCN(C(=O)NC(C(=O)N[C@H]2Cc3cccc(C(=O)O)c3OB2O)c2ccc(C(N)=O)c(O)c2)C(=O)C1=O` (stereo partly drawn) [Example 45, (3R)-3-(2-(4-carbamoyl-3-hydroxyphenyl)-2-(4-ethyl-2,3-dioxopiperazine-1-carboxamido)acetamido)-2-hydroxy-3,4-dihydro-2H-benzo[e][1,2]oxaborinine-8-carboxylic acid], the MIC lay in the range of 16 to 32 µg/mL (≈ 28.2 to 56.4 µM).

Turning to `NC(=O)c1ccc(C(NC(=O)N2CCN(CCF)C(=O)C2=O)C(=O)N[C@H]2Cc3cccc(C(=O)O)c3OB2O)cc1O` (stereo partly drawn) [Example 46, (3R)-3-(2-(4-carbamoyl-3-hydroxyphenyl)-2-(4-(2-fluoroethyl)-2,3-dioxopiperazine-1-carboxamido)acetamido)-2-hydroxy-3,4-dihydro-2H-benzo[e][1,2]oxaborinine-8-carboxylic acid], the MIC lay in the range of 16 to 32 µg/mL (≈ 27.3 to 54.7 µM).

Regarding `NCCCN1CCN(C(=O)NC(C(=O)N[C@H]2Cc3cccc(C(=O)O)c3OB2O)c2ccc(C(N)=O)c(O)c2)C(=O)C1=O` (stereo partly drawn) [Example 47, (3R)-3-(2-(4-(3-aminopropyl)-2,3-dioxopiperazine-1-carboxamido)-2-(4-carbamoyl-3-hydroxyphenyl)acetamido)-2-hydroxy-3,4-dihydro-2H-benzo[e][1,2]oxaborinine-8-carboxylic acid], the MIC was above 64 µg/mL.

In the case of `CCN1CCN(C(=O)NC(C(=O)N[C@H]2Cc3cccc(C(=O)O)c3OB2O)c2ccc(C(=O)O)c(OC)c2)C(=O)C1=O` (stereo partly drawn) [Example 48, (3R)-3-(2-(4-carboxy-3-methoxyphenyl)-2-(4-ethyl-2,3-dioxopiperazine-1-carboxamido)acetamido)-2-hydroxy-3,4-dihydro-2H-benzo[e][1,2]oxaborinine-8-carboxylic acid], the MIC is 1 to 2 µg/mL (≈ 1.72 to 3.43 µM).

For the compound `O=C(NC(C(=O)N[C@H]1Cc2ccc(F)c(C(=O)O)c2OB1O)c1ncc(O)cc1F)c1ccnc(F)c1` (stereo partly drawn) [Example 53, (3R)-7-fluoro-3-(2-(3-fluoro-5-hydroxypyridin-2-yl)-2-(2-fluoroisonicotinamido)acetamido)-2-hydroxy-3,4-dihydro-2H-benzo[e][1,2]oxaborinine-8-carboxylic acid], the MIC was above 64 µg/mL.

For `CCN1CCN(C(=O)NC(C(=O)N[C@H]2Cc3ccc(C=O)c(C(=O)O)c3OB2O)c2csc(N)n2)C(=O)C1=O` (stereo partly drawn) [Example 57, (3R)-3-(2-(2-aminothiazol-4-yl)-2-(4-ethyl-2,3-dioxopiperazine-1-carboxamido)acetamido)-7-formyl-2-hydroxy-3,4-dihydro-2H-benzo[e][1,2]oxaborinine-8-carboxylic acid], the MIC was above 64 µg/mL.

In the case of `CCN1CCN(C(=O)NC(C(=O)N[C@H]2Cc3ccc(CO)c(C(=O)O)c3OB2O)c2csc(N)n2)C(O)C1=O` (stereo partly drawn) [Example 58, (3R)-3-(2-(2-aminothiazol-4-yl)-2-(4-ethyl-2-hydroxy-3-oxopiperazine-1-carboxamido)acetamido)-2-hydroxy-7-(hydroxymethyl)-3,4-dihydro-2H-benzo[el][1,2]oxaborinine-8-carboxylic acid], the MIC was above 64 µg/mL.

As to `CCN1CCN(C(=O)NC(C(=O)N[C@H]2Cc3ccc(O[C@@H]4CN[C@H](C(=O)N(C)C)C4)c(C(=O)O)c3OB2O)c2ccccc2)C(=O)C1=O` (stereo partly drawn) [Example 59, (3R)-7-(((3S,5S)-5-(dimethylcarbamoyl)pyrrolidin-3-yl)oxy)-3-(2-(4-ethyl-2,3-dioxopiperazine-1-carboxamido)-2-phenylacetamido)-2-hydroxy-3,4-dihydro-2H-benzo[e][1,2]oxaborinine-8-carboxylic acid], the MIC was above 64 µg/mL.

In the case of `CCN1CCN(C(=O)NC(C(=O)N[C@H]2Cc3ccc(OCCN)c(C(=O)O)c3OB2O)c2ccccc2)C(=O)C1=O` (stereo partly drawn) [Example 60, (3R)-7-(2-aminoethoxy)-3-(2-(4-ethyl-2,3-dioxopiperazine-1-carboxamido)-2-phenylacetamido)-2-hydroxy-3,4-dihydro-2H-benzo[e][1,2]oxaborinine-8-carboxylic acid], the MIC was above 64 µg/mL.

For `CCN1CCN(C(=O)NC(C(=O)N[C@H]2Cc3cccc(C(=O)O)c3OB2O)c2cccc(O)c2)C(=O)C1=O` (stereo partly drawn) [Example 68, (3R)-3-(2-(4-ethyl-2,3-dioxopiperazine-1-carboxamido)-2-(3-hydroxyphenyl)acetamido)-2-hydroxy-3,4-dihydro-2H-benzo[e][1,2]oxaborinine-8-carboxylic acid], the MIC lay within 16 to 32 µg/mL (≈ 30.5 to 61 µM).

As to `CCN1CCN(C(=O)NC(C(=O)N[C@H]2Cc3cccc(C(=O)O)c3OB2O)c2ccc(O)cc2O)C(=O)C1=O` (stereo partly drawn) [Example 69, (3R)-3-(2-(2,4-dihydroxyphenyl)-2-(4-ethyl-2,3-dioxopiperazine-1-carboxamido)acetamido)-2-hydroxy-3,4-dihydro-2H-benzo[e][1,2]oxaborinine-8-carboxylic acid], the MIC lay in the range of 16 to 32 µg/mL (≈ 29.6 to 59.2 µM).

Consider `CCN1CCN(C(=O)NC(C(=O)N[C@H]2Cc3cccc(C(=O)O)c3OB2O)c2ccc(O)cc2OC)C(=O)C1=O` (stereo partly drawn) [Example 70, (3R)-3-(2-(4-ethyl-2,3-dioxopiperazine-1-carboxamido)-2-(4-hydroxy-2-methoxyphenyl)acetamido)-2-hydroxy-3,4-dihydro-2H-benzo[e][1,2]oxaborinine-8-carboxylic acid], for which the MIC was above 64 µg/mL.

`CCN1CCN(C(=O)NC(C(=O)N[C@H]2Cc3cccc(C(=O)O)c3OB2O)c2cccc(N)c2)C(=O)C1=O` (stereo partly drawn) [Example 72, (3R)-3-(2-(3-aminophenyl)-2-(4-ethyl-2,3-dioxopiperazine-1-carboxamido)acetamido)-2-hydroxy-3,4-dihydro-2H-benzo[e][1,2]oxaborinine-8-carboxylic acid]: the MIC fell in the range of 16 to 32 µg/mL (≈ 30.6 to 61.1 µM).

As to `CCN1CCN(C(=O)NC(C(=O)N[C@H]2Cc3cccc(C(=O)O)c3OB2O)c2cccc([N+](=O)[O-])c2)C(=O)C1=O` (stereo partly drawn) [Example 75, (3R)-3-(2-(4-ethyl-2,3-dioxopiperazine-1-carboxamido)-2-(3-nitrophenyl)acetamido)-2-hydroxy-3,4-dihydro-2H-benzo[e][1,2]oxaborinine-8-carboxylic acid], the MIC is 16 to 32 µg/mL (≈ 28.9 to 57.8 µM).

Turning to `CCN1CCN(C(=O)NC(C(=O)N[C@H]2Cc3cccc(C(=O)O)c3OB2O)c2cccc(NS(C)(=O)=O)c2)C(=O)C1=O` (stereo partly drawn) [Example 76, (3R)-3-(2-(4-ethyl-2,3-dioxopiperazine-1-carboxamido)-2-(3-(methylsulfonamido)phenyl)acetamido)-2-hydroxy-3,4-dihydro-2H-benzo[e][1,2]oxaborinine-8-carboxylic acid], the MIC was above 64 µg/mL.

As for `CCN1CCN(C(=O)NC(C(=O)N[C@H]2Cc3cccc(C(=O)O)c3OB2O)c2cc(O)ccc2O)C(=O)C1=O` (stereo partly drawn) [Example 77, (3R)-3-(2-(2,5-dihydroxyphenyl)-2-(4-ethyl-2,3-dioxopiperazine-1-carboxamido)acetamido)-2-hydroxy-3,4-dihydro-2H-benzo[e][1,2]oxaborinine-8-carboxylic acid], the MIC was above 64 µg/mL.

For the compound `N=C(N)NCCN1CCN(C(=O)NC(C(=O)N[C@H]2Cc3ccc(F)c(C(=O)O)c3OB2O)c2ccc(C(=O)O)c(F)c2)C(=O)C1=O` (stereo partly drawn) [Example 78, (3R)-3-(2-(4-carboxy-3-fluorophenyl)-2-(4-(2-guanidinoethyl)-2,3-dioxopiperazine-1-carboxamido)acetamido)-7-fluoro-2-hydroxy-3,4-dihydro-2H-benzo[e][1,2]oxaborinine-8-carboxylic acid], the MIC is 16 to 32 µg/mL (≈ 24.8 to 49.6 µM).

`NCCN1CCN(C(=O)NC(C(=O)N[C@H]2Cc3cccc(C(=O)O)c3OB2O)c2cc(Cl)c(O)cc2F)C(=O)C1=O` (stereo partly drawn) [Example 87, (3R)-3-(2-(4-(2-aminoethyl)-2,3-dioxopiperazine-1-carboxamido)-2-(5-chloro-2-fluoro-4-hydroxyphenyl)acetamido)-2-hydroxy-3,4-dihydro-2H-benzo[e][1,2]oxaborinine-8-carboxylic acid]: the MIC is above 64 µg/mL.
